We go through 1 substance from paper PMC7556697 (ACS chemical biology, 2020).

pIC50: −log10 of the molar value.

This assay concerns the target NRAS (Homo sapiens, UniProt P01111, Q61R). As to the kind of experiment: acyl-resin assisted capture. In kind it is cell-based.

Regarding C8 alkyl cysteine [compound 1], the negative-log IC50 (pIC50) is 5.15.
